In ChEMBL document CHEMBL2406977, “The discovery of PLK4 inhibitors: (E)-3-((1H-Indazol-6-yl)methylene)indolin-2-ones as novel antiproliferative agents” (J Med Chem, 2013):
pIC50, pKi: −log10 of the molar value.

Columns and labels:
MCF7 = experiment: Antiproliferative activity against human MCF7 cells assessed as growth inhibition after 5 days by SRB assay; type: functional; conditions: MCF7, 120 h
Cytochrome P450 2D6 = Cytochrome P450 2D6 (Homo sapiens, UniProt P10635); experiment: Inhibition of CYP2D6 (unknown origin) using AMMC as substrate after 30 mins by fluorescence assay; type: ADME
HCC1954 = experiment: Antiproliferative activity against human HCC1954 cells assessed as growth inhibition after 5 days by SRB assay; type: functional; conditions: HCC1954, 120 h
[1] = target: Serine/threonine-protein kinase PLK3 (Homo sapiens, UniProt Q9H4B4); experiment: Inhibition of PLK3 (unknown origin) by FRET-based homogeneous assay
[2] = target: T1, Serine/threonine-protein kinase PLK4 (Homo sapiens, UniProt O00444); experiment: Inhibition of N-terminal GST-tagged human PLK4 (1 to 391 amino acids) expressed in Escherichia coli using TMB as substrate after 30 mins by indirect ELISA assay
T1 sequence (O00444 whole entry): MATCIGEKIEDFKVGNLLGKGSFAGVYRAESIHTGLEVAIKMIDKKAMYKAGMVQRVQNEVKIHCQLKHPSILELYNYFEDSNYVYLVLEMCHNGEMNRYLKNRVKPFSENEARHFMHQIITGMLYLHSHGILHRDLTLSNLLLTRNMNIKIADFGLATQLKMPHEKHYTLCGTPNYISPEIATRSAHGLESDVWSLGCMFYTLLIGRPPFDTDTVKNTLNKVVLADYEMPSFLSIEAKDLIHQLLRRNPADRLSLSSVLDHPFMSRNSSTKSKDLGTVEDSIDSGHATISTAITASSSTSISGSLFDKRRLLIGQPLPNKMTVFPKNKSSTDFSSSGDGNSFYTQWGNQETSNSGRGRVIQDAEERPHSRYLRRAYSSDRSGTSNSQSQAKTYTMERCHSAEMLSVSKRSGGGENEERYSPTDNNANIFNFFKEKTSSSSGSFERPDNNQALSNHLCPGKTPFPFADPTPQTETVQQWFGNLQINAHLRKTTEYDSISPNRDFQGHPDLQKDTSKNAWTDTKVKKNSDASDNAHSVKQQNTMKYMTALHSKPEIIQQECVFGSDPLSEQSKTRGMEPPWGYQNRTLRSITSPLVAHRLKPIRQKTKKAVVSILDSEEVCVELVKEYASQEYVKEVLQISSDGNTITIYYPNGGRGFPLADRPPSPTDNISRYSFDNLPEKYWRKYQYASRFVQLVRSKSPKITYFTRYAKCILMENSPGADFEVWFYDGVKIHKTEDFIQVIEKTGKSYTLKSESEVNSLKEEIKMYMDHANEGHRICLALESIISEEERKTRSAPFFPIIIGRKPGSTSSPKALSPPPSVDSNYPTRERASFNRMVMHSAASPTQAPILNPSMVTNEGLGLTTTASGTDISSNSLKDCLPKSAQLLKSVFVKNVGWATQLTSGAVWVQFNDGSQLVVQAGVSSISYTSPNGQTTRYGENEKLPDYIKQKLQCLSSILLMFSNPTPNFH

[3] = Permeability of the compound at pH 7.4 by PAMPA; type: ADME; conditions: read-out: permeability
MDA-MB-468 [4] = experiment: Antiproliferative activity against human MDA-MB-468 cells assessed as growth inhibition after 5 days by SRB assay; type: functional; conditions: MDA-MB-468, 120 h
Cytochrome P450 2C19 = Cytochrome P450 2C19 (Homo sapiens, UniProt P33261); experiment: Inhibition of CYP2C19 (unknown origin) using MFC as substrate after 30 mins by fluorescence assay; type: ADME
Cytochrome P450 3A4 = Cytochrome P450 3A4 (Homo sapiens, UniProt P08684); experiment: Inhibition of CYP3A4 (unknown origin) after 10 mins by fluorescence assay; type: ADME
[5] = target: Serine/threonine-protein kinase PLK1 (Homo sapiens, UniProt P53350); experiment: Inhibition of PLK1 (unknown origin) by FRET-based homogeneous assay
SK-BR-3 = experiment: Antiproliferative activity against human SKBR3 cells assessed as growth inhibition after 5 days by SRB assay; type: functional; conditions: SK-BR-3, 120 h
MDA-MB-231 = experiment: Antiproliferative activity against human MDA-MB-231 cells assessed as growth inhibition after 5 days by SRB assay; type: functional; conditions: MDA-MB-231, 120 h
Cytochrome P450 2C9 = Cytochrome P450 2C9 (Homo sapiens, UniProt P11712); experiment: Inhibition of CYP2C9 (unknown origin) using MFC as substrate after 45 mins by fluorescence assay; type: ADME
[6] = target: Serine/threonine-protein kinase PLK2 (Homo sapiens, UniProt Q9NYY3); experiment: Inhibition of PLK2 (unknown origin) by FRET-based homogeneous assay
Cytochrome P450 1A2 = target: T2, Cytochrome P450 1A2 (Homo sapiens, UniProt P05177); experiment: Inhibition of CYP1A2 (unknown origin) using CEC as substrate after 15 mins by fluorescence assay; type: ADME
T2 sequence (P05177 whole entry): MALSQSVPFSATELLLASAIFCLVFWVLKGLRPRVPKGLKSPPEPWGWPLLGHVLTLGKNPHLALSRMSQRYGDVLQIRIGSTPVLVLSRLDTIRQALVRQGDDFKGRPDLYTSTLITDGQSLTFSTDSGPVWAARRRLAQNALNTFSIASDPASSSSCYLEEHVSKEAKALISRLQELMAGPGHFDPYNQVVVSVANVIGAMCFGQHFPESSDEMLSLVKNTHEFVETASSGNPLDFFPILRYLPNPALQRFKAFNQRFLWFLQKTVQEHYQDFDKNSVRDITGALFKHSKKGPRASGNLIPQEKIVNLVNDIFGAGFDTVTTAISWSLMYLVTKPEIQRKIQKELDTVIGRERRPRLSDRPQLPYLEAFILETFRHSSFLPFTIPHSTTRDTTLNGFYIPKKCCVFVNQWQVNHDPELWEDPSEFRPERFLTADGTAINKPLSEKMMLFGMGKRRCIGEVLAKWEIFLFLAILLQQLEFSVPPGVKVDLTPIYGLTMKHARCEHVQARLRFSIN

[7] = target: T1, Serine/threonine-protein kinase PLK4; experiment: Inhibition of human PLK4
MDA-MB-468 [8] = experiment: Cell cycle arrest in human MDA-MB-468 cells assessed as accumulation at G1 phase at 0.25 uM after 2 days by FACS analysis; type: functional
MDA-MB-468 [9] = experiment: Cell cycle arrest in human MDA-MB-468 cells assessed as accumulation of 16N peaks at 0.25 uM after 2 days by FACS analysis; type: functional
MDA-MB-468 [10] = experiment: Cell cycle arrest in human MDA-MB-468 cells assessed as accumulation at G1 phase at 0.5 uM after 2 days by FACS analysis; type: functional
MDA-MB-468 [11] = experiment: Cell cycle arrest in human MDA-MB-468 cells assessed as accumulation of 8N peaks at 1 uM after 2 days by FACS analysis; type: functional
MDA-MB-468 [12] = experiment: Cell cycle arrest in human MDA-MB-468 cells assessed as accumulation at G1 phase at 1 uM after 2 days by FACS analysis; type: functional
MDA-MB-468 [13] = experiment: Cell cycle arrest in human MDA-MB-468 cells assessed as accumulation of 8N peaks at 0.5 uM after 2 days by FACS analysis; type: functional
MDA-MB-468 [14] = experiment: Cell cycle arrest in human MDA-MB-468 cells assessed as accumulation of 16N peaks at 1 uM after 2 days by FACS analysis; type: functional
MDA-MB-468 [15] = experiment: Cell cycle arrest in human MDA-MB-468 cells assessed as accumulation of 8N peaks at 0.25 uM after 2 days by FACS analysis; type: functional
MDA-MB-468 [16] = experiment: Cell cycle arrest in human MDA-MB-468 cells assessed as accumulation of 16N peaks at 0.5 uM after 2 days by FACS analysis; type: functional

Sequence of Cytochrome P450 2C19 (P33261 whole entry): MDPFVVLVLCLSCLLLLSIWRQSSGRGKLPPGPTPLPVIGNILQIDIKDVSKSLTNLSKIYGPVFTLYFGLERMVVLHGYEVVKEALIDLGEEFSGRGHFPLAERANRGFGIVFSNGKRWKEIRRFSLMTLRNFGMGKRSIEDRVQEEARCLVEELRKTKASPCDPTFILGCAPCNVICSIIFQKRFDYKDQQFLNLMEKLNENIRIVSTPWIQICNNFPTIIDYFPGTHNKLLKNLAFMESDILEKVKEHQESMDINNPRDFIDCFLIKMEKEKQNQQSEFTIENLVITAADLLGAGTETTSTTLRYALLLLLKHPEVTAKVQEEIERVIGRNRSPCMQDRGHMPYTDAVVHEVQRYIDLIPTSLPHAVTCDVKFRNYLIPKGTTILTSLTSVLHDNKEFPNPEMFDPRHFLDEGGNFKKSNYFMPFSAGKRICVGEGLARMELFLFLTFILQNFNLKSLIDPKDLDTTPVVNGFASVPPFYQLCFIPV
Sequence of Serine/threonine-protein kinase PLK1 (P53350 whole entry): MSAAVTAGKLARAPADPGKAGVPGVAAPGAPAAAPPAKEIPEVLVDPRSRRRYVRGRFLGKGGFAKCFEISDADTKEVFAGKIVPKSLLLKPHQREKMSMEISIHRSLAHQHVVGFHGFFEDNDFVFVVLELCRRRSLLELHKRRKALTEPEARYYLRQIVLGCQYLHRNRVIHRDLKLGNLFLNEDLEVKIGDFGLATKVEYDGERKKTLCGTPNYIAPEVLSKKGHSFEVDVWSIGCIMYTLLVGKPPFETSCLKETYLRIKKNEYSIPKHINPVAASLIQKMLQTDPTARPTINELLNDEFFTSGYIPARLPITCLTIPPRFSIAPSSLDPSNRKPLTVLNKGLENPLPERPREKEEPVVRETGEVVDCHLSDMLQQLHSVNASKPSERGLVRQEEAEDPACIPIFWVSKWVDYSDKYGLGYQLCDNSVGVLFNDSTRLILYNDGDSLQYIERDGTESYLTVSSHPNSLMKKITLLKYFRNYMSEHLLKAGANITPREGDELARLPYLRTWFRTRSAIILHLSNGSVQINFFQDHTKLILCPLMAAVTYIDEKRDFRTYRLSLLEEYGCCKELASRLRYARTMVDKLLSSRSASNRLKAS
Sequence of Cytochrome P450 3A4 (P08684 whole entry): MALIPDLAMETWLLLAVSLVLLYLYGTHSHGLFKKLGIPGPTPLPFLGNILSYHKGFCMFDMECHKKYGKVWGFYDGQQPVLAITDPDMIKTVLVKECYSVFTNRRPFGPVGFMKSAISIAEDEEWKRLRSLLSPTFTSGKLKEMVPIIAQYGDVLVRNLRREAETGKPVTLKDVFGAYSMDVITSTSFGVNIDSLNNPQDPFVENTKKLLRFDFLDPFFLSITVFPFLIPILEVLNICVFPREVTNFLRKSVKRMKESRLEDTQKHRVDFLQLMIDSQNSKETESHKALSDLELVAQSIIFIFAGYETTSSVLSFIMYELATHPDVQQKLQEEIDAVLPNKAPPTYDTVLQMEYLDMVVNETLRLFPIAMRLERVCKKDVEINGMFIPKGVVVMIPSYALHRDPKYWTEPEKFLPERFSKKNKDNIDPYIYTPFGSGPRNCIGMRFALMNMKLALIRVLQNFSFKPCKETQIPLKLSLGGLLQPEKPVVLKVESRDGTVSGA
Sequence of Serine/threonine-protein kinase PLK3 (Q9H4B4 whole entry, the tested form may be a part): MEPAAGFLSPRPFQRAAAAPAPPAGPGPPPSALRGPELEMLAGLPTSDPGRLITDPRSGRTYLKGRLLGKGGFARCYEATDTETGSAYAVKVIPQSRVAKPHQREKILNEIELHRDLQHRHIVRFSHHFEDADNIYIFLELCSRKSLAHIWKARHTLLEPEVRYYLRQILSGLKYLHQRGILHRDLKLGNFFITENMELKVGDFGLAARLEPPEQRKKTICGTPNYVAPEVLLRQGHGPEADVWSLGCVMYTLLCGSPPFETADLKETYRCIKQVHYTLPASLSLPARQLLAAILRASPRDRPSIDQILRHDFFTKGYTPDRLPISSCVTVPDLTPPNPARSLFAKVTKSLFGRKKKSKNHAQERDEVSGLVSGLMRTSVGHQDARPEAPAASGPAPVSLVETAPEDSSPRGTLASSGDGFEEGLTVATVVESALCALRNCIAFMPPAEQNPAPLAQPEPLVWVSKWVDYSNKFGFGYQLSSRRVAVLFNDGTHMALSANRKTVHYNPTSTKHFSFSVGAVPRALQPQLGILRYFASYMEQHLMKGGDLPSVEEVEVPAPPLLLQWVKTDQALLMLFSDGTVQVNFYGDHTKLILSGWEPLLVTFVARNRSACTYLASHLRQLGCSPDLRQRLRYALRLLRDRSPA
Sequence of Serine/threonine-protein kinase PLK2 (Q9NYY3 whole entry): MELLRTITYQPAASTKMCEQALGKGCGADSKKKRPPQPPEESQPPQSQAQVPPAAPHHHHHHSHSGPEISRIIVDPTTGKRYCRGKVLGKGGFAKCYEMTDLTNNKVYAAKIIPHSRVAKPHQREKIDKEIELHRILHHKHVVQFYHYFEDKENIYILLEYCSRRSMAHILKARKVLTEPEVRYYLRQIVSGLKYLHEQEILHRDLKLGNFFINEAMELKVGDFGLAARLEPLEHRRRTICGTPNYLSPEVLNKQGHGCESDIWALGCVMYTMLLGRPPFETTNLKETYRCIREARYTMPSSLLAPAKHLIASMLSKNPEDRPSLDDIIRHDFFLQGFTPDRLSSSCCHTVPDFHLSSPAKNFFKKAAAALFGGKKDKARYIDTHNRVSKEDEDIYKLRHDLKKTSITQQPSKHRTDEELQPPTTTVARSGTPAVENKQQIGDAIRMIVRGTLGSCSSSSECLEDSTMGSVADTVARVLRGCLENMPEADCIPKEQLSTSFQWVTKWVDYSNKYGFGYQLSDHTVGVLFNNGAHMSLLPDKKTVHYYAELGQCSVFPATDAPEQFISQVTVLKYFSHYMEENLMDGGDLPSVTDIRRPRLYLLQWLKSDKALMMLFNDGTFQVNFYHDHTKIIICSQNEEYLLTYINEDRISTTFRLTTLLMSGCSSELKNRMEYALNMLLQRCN
Sequence of Cytochrome P450 2D6 (P10635 whole entry): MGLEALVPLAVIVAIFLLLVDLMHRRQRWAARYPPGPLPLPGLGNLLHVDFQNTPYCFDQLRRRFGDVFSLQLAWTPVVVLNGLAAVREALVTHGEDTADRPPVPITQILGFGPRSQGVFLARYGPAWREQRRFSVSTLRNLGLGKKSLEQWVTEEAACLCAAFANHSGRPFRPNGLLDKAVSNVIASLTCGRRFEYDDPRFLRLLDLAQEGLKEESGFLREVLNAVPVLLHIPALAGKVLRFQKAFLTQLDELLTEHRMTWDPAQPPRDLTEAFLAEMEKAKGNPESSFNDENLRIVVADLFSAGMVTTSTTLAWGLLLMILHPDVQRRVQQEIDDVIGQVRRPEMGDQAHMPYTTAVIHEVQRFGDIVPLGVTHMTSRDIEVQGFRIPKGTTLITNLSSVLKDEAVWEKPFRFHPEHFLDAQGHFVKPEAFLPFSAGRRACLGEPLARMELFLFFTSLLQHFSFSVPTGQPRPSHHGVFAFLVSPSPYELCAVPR
Sequence of Cytochrome P450 2C9 (P11712 whole entry): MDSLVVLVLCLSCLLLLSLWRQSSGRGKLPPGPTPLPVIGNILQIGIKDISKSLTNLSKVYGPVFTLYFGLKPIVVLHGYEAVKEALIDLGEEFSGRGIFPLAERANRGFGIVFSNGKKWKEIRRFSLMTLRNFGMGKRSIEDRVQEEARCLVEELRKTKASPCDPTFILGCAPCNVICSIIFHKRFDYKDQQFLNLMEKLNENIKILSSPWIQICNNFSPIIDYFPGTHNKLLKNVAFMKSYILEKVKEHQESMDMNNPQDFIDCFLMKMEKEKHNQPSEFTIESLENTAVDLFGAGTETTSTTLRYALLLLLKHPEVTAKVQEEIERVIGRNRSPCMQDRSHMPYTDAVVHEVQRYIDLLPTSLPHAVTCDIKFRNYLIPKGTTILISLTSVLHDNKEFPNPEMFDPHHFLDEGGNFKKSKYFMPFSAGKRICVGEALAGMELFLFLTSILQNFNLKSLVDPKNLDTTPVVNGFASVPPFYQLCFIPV

Row | SMILES | GI50 (MCF7) [nM] | pIC50 (Cytochrome P450 2D6) | GI50 (HCC1954) [nM] | pIC50 [1] | pIC50 [2] | Papp [3] [×10⁻⁶ cm/s] | GI50 (MDA-MB-468 [4]) [nM] | pIC50 (Cytochrome P450 2C19) | pIC50 (Cytochrome P450 3A4) | pIC50 [5] | GI50 (SK-BR-3) [nM] | GI50 (MDA-MB-231) [nM] | pIC50 (Cytochrome P450 2C9) | pIC50 [6] | pIC50 (Cytochrome P450 1A2) | pKi [7] | also measured
1 | COCCOc1ccc2cc1OCC(=O)N(C)CCCN(C)Cc1c[nH]c3ncnc(c13)N2 | – | – | – | – | – | – | – | – | – | – | – | – | – | – | – | 7.60 | –
2 | CN1CCN(c2ccc(/C=C/c3n[nH]c4cc(/C=C5/C(=O)Nc6ccccc65)ccc34)cn2)CC1 | 20 | 5.00 | 370 | < 5.00 | 8.85 | 335 | 20 | 6.36 | 6.10 | < 5.00 | 1100 | < 10 | 6.05 | < 5.00 | 5.00 | – | –
3 | COc1cc2c(cc1F)C(c1ccccc1Cl)=Nc1c(n[nH]c1C)N2 [RG-1530] | – | – | – | – | – | – | – | – | – | – | – | – | – | – | – | 7.96 | –

More lines, main results first:

Row | GI50 (MCF7) [nM] | pIC50 (Cytochrome P450 2D6) | GI50 (HCC1954) [nM] | pIC50 [1] | pIC50 [2] | Papp [3] [×10⁻⁶ cm/s] | GI50 (MDA-MB-468 [4]) [nM] | pIC50 (Cytochrome P450 2C19) | pIC50 (Cytochrome P450 3A4) | pIC50 [5] | GI50 (SK-BR-3) [nM] | GI50 (MDA-MB-231) [nM] | pIC50 (Cytochrome P450 2C9) | pIC50 [6] | pIC50 (Cytochrome P450 1A2) | SMILES | pKi [7] | also measured
4 | 10 | 5.05 | 480 | < 5.00 | 8.70 | 276 | 10 | 6.00 | 5.00 | < 5.00 | 1900 | 2 | 5.89 | < 5.00 | < 5.00 | CN(C)Cc1ccc(/C=C/c2n[nH]c3cc(/C=C4/C(=O)Nc5ccccc54)ccc23)cc1 | – | –
5 | 160 | < 5.00 | 930 | < 5.00 | 8.27 | 197 | 310 | 6.89 | 5.57 | < 5.00 | 25000 | 19000 | 7.70 | < 5.00 | < 5.00 | O=C1Nc2ccccc2/C1=C\c1ccc2c(/C=C/c3ccncc3)n[nH]c2c1 | – | Activity (MDA-MB-468 [8]): 11.2%; Activity (MDA-MB-468 [9]): 1.7%; Activity (MDA-MB-468 [10]): 20.8%; Activity (MDA-MB-468 [11]): 32.5%; Activity (MDA-MB-468 [12]): 24.8%; Activity (MDA-MB-468 [13]): 34.3%; Activity (MDA-MB-468 [14]): 5.2%; Activity (MDA-MB-468 [15]): 11.85%; Activity (MDA-MB-468 [16]): 6%
